# Reference: US6710048B2, “Pyrazine derivatives as modulators of tyrosine kinases” (Ortho-McNeil Pharmaceutical, Inc., priority 2000, dated 2004)
# pIC50: −log10 of the molar value.
# Columns and labels:
# [1] = system: PC-3 prostate adenocarcinoma; assay: Cell proliferation assay (14C-thymidine incorporation), PC-3; format: cell-based; conditions: Homo sapiens, read-out: Inhibition of cell proliferation IC50
# Description: (§1) The ability of a test compound to inhibit the proliferation of cell growth was determined by measuring incorporation of ^14C-labelled thymidine into newly synthesized DNA within the cells. This method was used on cell lines derived from carcinomas originating from several tissues such as HeLa cervical adenocarcinoma (American Type Culture Collection (ATCC), Virginia, Cat. #CCL-2), A375 malignant melanoma (ATCC CRL-1619), SK-OV-3 ovarian adenocarcinoma (ATCC HTB-77) HCT-116 colon carcinoma (CCL-247) and PC-3 prostate adenocarcinoma (ATCC CRL-1435). The method was also used on primary cells such as HUVEC endothelial cells (ATCC CRL-1730). In this way the effect of a compound on cell growth of cells with many different phenotypes can be determined. Cells were trypsinized and counted and 3000-8000 cells were added to each well of a 96-well CytoStar tissue culture treated scintillating microplate (Amersham #RPNQ0160) in complete medium in a volume of 100 μl. Cells were incubated for 24 hours in complete medium at 37° C. in an atmosphere containing 5% CO2.
# (§2) Next, 1 μl of test compound in 100% DMSO was added to the wells of the plate. DMSO only was added to control wells. Cells were incubated for 24 more hours in complete medium at 37° C. in an atmosphere containing 5% CO2. Methyl ^14C-thymidine 56 mCi/mmol (NEN #NEC568 or Amersham #CFA532) was diluted in complete medium and 0.2 μCi/well was added to each well of the CytoStar plate in a volume of 20 μl. The plate was incubated for 24 hours at 37° C. plus 5% CO2 in drug plus ^14C-thymidine. The contents of the plate were discarded into a ^14C radioactive waste container by inverting the plate and the plate was washed twice with 200 μl PBS. 200 μl of PBS is then added to each well. The top of the plate was sealed with a transparent plate sealer and a white plate backing sealer (Packard #6005199) was applied to the bottom of the plate. The degree of Methyl ^14C-thymidine incorporation was quantified on a Packard Top Count.
# [2] = system: MDA-MB-231; assay: Cell proliferation assay (14C-thymidine incorporation), MDA-MB-231; format: cell-based; conditions: Homo sapiens, read-out: Inhibition of cell proliferation IC50
# Description: as §1, §2
# [3] = system: rat aortic ring; assay: Rat aortic ring assay (vascular sprouting); format: cell-based; conditions: 192 h; rat aortic ring in fibrin gel, analyzed on day 8; read-out: Inhibition of Vascular Sprouting (IC50μM)
# Description: The rat aortic ring assay is a rapid in vitro assay that measures new capillary growth in an environment that closely approximates the in vivo conditions of the extracellular matrix. The assay was performed as described (Nicosia, R F and Ottinetti, A. Growth of new microvessels in serum-free matrix culture of rat aorta. Lab Invest., 63: 115-122, 1990). Thoracic aortas were removed from 1 to 2-month old male Sprague-Dawley rats and transferred to a culture dish containing serum-free MCDB 131 medium (Clonetics). Extraneous tissue was removed and the aorta was sectioned into rings approximately 1 mm long and rinsed 8-10 times in serum-free medium. A solution of sterile 1.5% agarose (Type VI-A, Sigma, St. Louis, Mo.) was added to the wells of a 6-well plate. The wells were filled with clotting fibrinogen solution and an aortic ring was transferred into the well positioned with the lumen oriented horizontally in the center of the fibrin gel solution. The fibrinogen solution was prepared in MCDB 131 medium with bovine fibrinogen at 3 mg/ml. Clotting was initiated by adding 20 μl of a 50 NIH units/ml bovine thrombin solution and the fibrin gel generally formed within 30 seconds. The fibrinolytic inhibitor amino-n-caproic acid was added to the culture medium at 300 µg/ml (microgram per milliliter) for the first four days of the assay and at 50 μg/ml from day 5 to day 8. Once the fibrin gel solution solidified, 5 ml of serum-free MCDB 131 media containing 100 μg/ml penicillin, 100 μg/ml streptomycin and 0.25 μg/ml amphotericin B was added to each well. Explants were incubated at 37° C. with 5% CO2 for 8 days. Medium was replaced every 2-3 days and the assay was analyzed on day 8. Inhibition of vascular sprouting was measured by adding test compounds diluted in DMSO.
# [4] = system: A375 human melanoma cells; assay: In vivo inhibition of tumor growth (A375 in athymic mice); design: species or system mouse; conditions: A375 cells s.c. in male athymic mice, intraperitoneally once a day for 30 days, 50 mg/Kg and 5 mg/Kg (FIG. 1)
# Text: The in vivo effect of a compound on the growth of human tumor cells can be evaluated by implanting human tumor cells into the hindflank of athymic mice and administering test compound to the mice. Such assays are useful in identifying and confirming compounds that are useful for inhibiting angiogenesis or to identify compounds that can inhibit VEGF activity and therefor are useful for treating a variety of cancers or other diseases associated with abnormal or aberrant angiogenesis, such as those diseases discussed supra. Human tumor cells originating from a variety of different cancer types, such as A375 human melanoma cells, were implanted subcutaneously into the hindflank of male athymic mice (Charles River) and allowed to establish a sizeable tumor for 6-10 days as determined by caliper measurements. Test compound was then administered by injecting the compound formulated in an appropriate vehicle, here saline was used as the vehicle, intraperitoneally into the mice once a day for 30 days. The test compound can also be administered by other routes such as orally, sub cutaneously or by intravenous infusion. The size of the tumor in this study was measured every four days and the degree of inhibition was determined by comparing drug-treated animals to animals that were injected with vehicle only. […]
structure (smiles),measurement,setting,value
"CN(C)CCNc1cncc(-c2cncc(Nc3cccc(Cl)c3)n2)c1 [Cmd 33, N′-[5-[6-[(3-chlorophenyl)amino]pyrazinyl]-3-pyridinyl]-N^2,N^2-dimethyl-1,2-ethanediamine]",pIC50,[1],4.64
same,pIC50,[2],4.90
same,pIC50,[3],< 6.00
same,tumor growth delay (tumor size),[4],delay of tumor size progression
same,tumor growth delay (tumor size),[4]; listed as compound 33,tumor growth delay
